Biological target: Adrenergic receptor alpha-1 (Rattus norvegicus) (UniProt P15823+P23944+P43140)
Assay: Compound was tested for antihypertensive activity mediated through Alpha-1 adrenergic receptor in anesthetized rat
Type: functional

- ED50: 0.25 mg/kg
Compound: O=C1Nc2ccccc2C2=NC(CN3CCN(c4ccccc4)CC3)CN12 (stereo unspecified)

— ChEMBL document CHEMBL1125954, “Studies on quinazolinones. 3: 1 novel and efficient route to the synthesis of conformationally restricted analogues of ketanserin and SGB-1534 as antihypertensive agents” (Bioorg Med Chem Lett, 1991)
